Tests used:
Type in all cases: functional
SF-268 = test: Antiproliferative activity against human SF268 cell line
HCT-116 = test: Antiproliferative activity against human HCT116 cell line
DU-145 = test: Antiproliferative activity against human DU145 cell line
MDA-MB-435 = test: Antiproliferative activity against human MDA-MB-435 cell line
SN12C = test: Antiproliferative activity against human SN12C cell line
UACC-62 = test: Antiproliferative activity against human UACC62 cell line
HOP-62 = test: Antiproliferative activity against human HOP62 cell line
OVCAR-3 = test: Antiproliferative activity against human OVCAR-3 cell line

SMILES	GI50 (SF-268) [µM]	GI50 (HCT-116) [µM]	GI50 (DU-145) [µM]	GI50 (MDA-MB-435) [µM]	GI50 (SN12C) [µM]	GI50 (UACC-62) [µM]	GI50 (HOP-62) [µM]	GI50 (OVCAR-3) [µM]
O=C1c2ccccc2-c2c1c1ccccc1c(=O)n2CCN1CCOCC1	85.1	–	–	–	–	–	–	–
CN(C)CCCn1c2c(c3cc4c(cc3c1=O)OCO4)C(=O)c1ccccc1-2	2.69	< 0.01	2.04	3.02	0.023	0.3	< 0.01	2.63
O=C1c2ccccc2-c2c1c1ccccc1c(=O)n2CCCn1ccnc1	2.34	1.41	1.41	–	1.66	0.79	2.69	1.66
O=C1c2ccccc2-c2c1c1ccc([N+](=O)[O-])cc1c(=O)n2CCN1CCOCC1	–	> 100	61.7	> 100	58.9	83.2	52.5	> 100
O=C1c2ccccc2-c2c1c1ccccc1c(=O)n2CCNCCO	1.65	–	–	–	–	–	–	–
COc1cc2c3c(n(CCN4CCOCC4)c(=O)c2cc1OC)-c1ccccc1C3=O	> 100	60.3	> 100	> 100	> 100	56.2	89.1	> 100
COc1cc2c3c(oc(=O)c2cc1OC)-c1ccccc1C3=O	100	100	100	100	100	100	–	100
COc1cc2c(=O)oc3c(c2c(OC)c1OC)C(=O)c1ccccc1-3	> 100	> 100	> 100	> 100	> 100	> 100	53.7	> 100
O=C1c2ccccc2-c2c1c1ccc([N+](=O)[O-])cc1c(=O)n2CCCn1ccnc1	0.016	–	–	–	–	–	–	–
O=C1c2ccccc2-c2oc(=O)c3cc4c(cc3c21)OCO4	> 100	47.9	> 100	> 100	> 100	25.1	18.2	> 100
CN(C)CCCn1c2c(c3ccc([N+](=O)[O-])cc3c1=O)C(=O)c1ccccc1-2	–	6.46	–	> 100	4.17	7.08	–	25.7
COc1cc2c3c(n(CCCN(C)C)c(=O)c2cc1OC)-c1ccccc1C3=O	6.17	2.45	4.47	7.08	11	6.61	–	5.89
O=C1c2ccccc2-c2oc(=O)c3cc([N+](=O)[O-])ccc3c21	> 100	> 100	> 100	> 100	> 100	> 100	> 100	> 100
COc1cc2c3c(n(CCCn4ccnc4)c(=O)c2cc1OC)-c1ccccc1C3=O	< 0.01	–	–	–	–	–	–	–
CC[C@@]1(O)C(=O)OCc2c1cc1n(c2=O)Cc2cc3ccccc3nc2-1 [CAMPTOTHECIN]	0.01	–	–	–	–	–	–	–
